Experimental data reported in patent US12415819B2, “Cu- and Ni-catalyzed decarboxylative borylation reactions” (The Scripps Research Institute, priority 2017, dated 2025).
Where two headings read alike, the source gives them in different places. Residues, ends and D or L forms follow the SMILES beside them. *: point of attachment. Moc = COC(=O)*

Tests used:
[1] = target: human neutrophil elastase (Homo sapiens (Human), UniProt P08246); assay: Elastase inhibition assay, purified human neutrophil elastase; format: biochemical; settings: for IC50 / LipE: Purified NHE; for IC50: 30 minutes incubation at room temperature, 100 μM substrate
Protocol: Serially diluted compounds in DMSO were dispensed into a 384-well black opaque plate by Echo dispenser. 0.1 μg/mL human neutrophil elastase (EPC, Catalog# SE563, Owensville, Ms.) or human sputum diluted with assay buffer (100 mM HEPES, 500 mM NaCl, 0.02% Tween 20) was added into the 384-well plate, and was incubated with different compounds at different concentrations for 30 minutes at room temperature. The final concentration of DMSO in the reaction was 0.1%. […] Slope of fluorescence intensity vs. time representing the Vmax of enzyme activity was calculated with MARS software. % relative inhibition was calculated as: […]
(§1) IC50 was calculated based on the % relative inhibition curve using log(agonist) vs. response (three parameters) method with Prism software. All experiments were performed in triplicate for at least three independent times.

[2] = target: elastase in COPD patient sputum (Homo sapiens (Human), UniProt P08246); assay: Elastase inhibition assay in COPD patient sputum; format: biochemical
Protocol: (§2) Serially diluted compounds in DMSO were dispensed into a 384-well black opaque plate by Echo dispenser. 0.1 μg/mL human neutrophil elastase (EPC, Catalog# SE563, Owensville, Ms.) or human sputum diluted with assay buffer (100 mM HEPES, 500 mM NaCl, 0.02% Tween 20) was added into the 384-well plate, and was incubated with different compounds at different concentrations for 30 minutes at room temperature. The final concentration of DMSO in the reaction was 0.1%. Elastase substrate MeOSuc-AAPV-AMC (Bachem, Catalog #I-1270, Torrance, CA) of 100 μM final concentration was then added into the reaction system just before enzyme kinetics were read on PheraSTAR plate reader at excitation of 380 nm and emission of 460 nm with a 3-minutes interval for 30 minutes in total. Slope of fluorescence intensity vs. time representing the Vmax of enzyme activity was calculated with MARS software. % relative inhibition was calculated as: […]
as §1
(§3) Human sputum was purchased from Discovery Life Sciences (Los Osos, CA). Human sputum was diluted 1:10 in volume with assay buffer (100 mM HEPES, 500 mM NaCl, 0.02% Tween 20) followed by vigorous vortexing. The 1:10 diluted human sputum was further diluted into 1:30, 1:90, 1:270, 1:810, and 1:2430. The elastase concentration was determined by elastase inhibition assay as described above. Specifically, a series of standards of human neutrophil elastase (starting at 2 μg/mL and further diluted 1:2 in volume) were prepared in the assay buffer. The samples and standards were plated in a 384-well black solid bottom plate; the substrate MeOSuc-AAPV-AMC of 100 μM final concentration was then added into the reaction system just before enzyme kinetics were read on PheraSTAR plate reader as mentioned above. The slope of enzymatic kinetic reading was calculated by MARS software. The elastase levels of the human sputum were calculated based on the standard curve.

[3] = target: elastase in CF patient sputum (Homo sapiens (Human), UniProt P08246); assay: Elastase inhibition assay in CF patient sputum; format: biochemical; settings: for IC50 / LipE: CF sputum
Protocol: as §2, §1, §3

[4] = Mouse Liver Microsomal Metabolic Stability Assay; settings: for Remaining (*NCF = 60min): MLM 0.5, no co-factor; for Remaining (T = 60 min): MLM 0.5, with NADPH regenerating system
Protocol: 100 mM potassium phosphate buffer, pH 7.4. • 2. 10 mM MgCl2 • 3) Compound Dilution:
Intermediate solution was prepared by diluting 5 μL of compound or control stock solution (10 mM in DMSO) with DMSO (45 μL) and 1:1 Methanol/Water (450 μL) (concentration=100 μM, 45% MeOH). Working solution was prepared by diluting 50 μL of the intermediate solution with 450 μL of 100 mM potassium phosphate buffer, pH=7.4 (centration=10 μM, 4.5% MeOH). • 4) NADPH regenerating system (final Isocitric dehydrogenase concentration=1 unit/mL at incubation) comprised:
10 μL/well of compound working solution or control working solution was added to all plates (T0, T5, T10, T20, T30, T60, NCF60) except the matrix blank. 80 μL/well of microsome solution was added to every plate. The mixtures of microsome solution and compound were incubated at 37° C. for about 10 min. 10 μL/well of NADPH regenerating system (pre-warmed to 37° C.) was then added to every plate to start the reaction. […] For NCF60 (abbreviation of no co-factor) no NADPH regenerating system was added, but was replaced by 10 μL/well of potassium phosphate buffer (100 mM, pH 7.4); the resulting mixture was incubated at 37° C. for 1 h.
The reactions were then terminated with the stop solution (cold at 4° C.) containing 100 ng/mL Tolbutamide and 100 ng/mL Labetalol ([…]). The sampling plates were shaken for approximately 10 minutes, then were centrifuged at 4000 rpm for 20 min at 4° C. While centrifuging, 8 new 96 well plates were loaded with […] of HPLC grade water. 100 μL of supernatant was finally added to 300 μL of HPLC grade water and mixed for LC/MS/MS analysis.
The equation of first order kinetics was used to calculate T1/2 and CIint(mic): […]

[5] = Caco-2 Permeability Assay; settings: human
Protocol: Digoxin, fenoterol, and propranol were used as standards respectively. Transport Method:
The transport buffer used in the study was HBSS with 10 mM HEPES at pH 7.40±0.05. Compounds were tested at 2 μM bi-directionally in duplicates. Digoxin was tested at […] bi-directionally in a duplicate, while fenoterol and propranolol were tested at 2 μM in A(apical) to B (basolateral) direction in duplicates. The final DMSO concentration was adjusted to less than 1%. The plate was incubated for 2 hours in a CO2 incubator at 37±1° C., with 5% CO2 at saturated humidity without shaking. All samples, after mixing with acetonitrile containing internal standard, were centrifuged at 4000 rpm for 20 min. Subsequently,100 μL supernatant solution was diluted with 100 μL distilled water for LC/MS/MS analysis. Concentrations of test and control compounds in starting solution, donor solution, and receiver solution were quantified by LC/MS/MS methodologies, using peak area ratio of analyte/internal standard. After transport assay, lucifer yellow rejection assay was applied to determine the Caco-2 cell monolayer integrity.
Data analysis: The apparent permeability coefficient Papp (cm/s) was calculated using the equation:
The efflux ratio was calculated using the equation: Efflux ratio=Papp(BA)/Papp(AB)
Percent recovery was calculated using the equation: % Recovery=100×[(Vr·Cr)+(Vd·Cd)]/(Vd·C0) Where Vd is the volume in the donor chambers (0.075 mL on the apical side, 0.25 mL on the basolateral side); Cd and Cr are the final concentrations of transport compound in donor and receiver chambers, respectively.

Plasma Stability Assay = format: in vitro ADME, mouse; settings: CD-1 Mouse Plasma
Protocol: Propantheline was used as the reference compound in this assay; all stock solutions were stored at −40° C. before use. • 2) Test system: CD-1 Mouse Plasma from a minimum of 20 male individuals were obtained from BioreclamationlVT (Catalog #: […]2-M; Batch #: MSE244515). EDTA-K2 was used as the anticoagulant. Procedure:
The frozen plasma was thawed in a water bath at 37° C. prior to the experiments. The plasma was centrifuged at 4000 rpm for 5 min and the clots were removed if necessary.
The pH was adjusted to 7.4±0.1 as necessary. An intermediate solution (1 mM) was prepared and a 100 μM dosing solution was prepared by diluting 10 μL of the intermediate solution with 90 μL 45% MeOH/H2O. Duplicate of test samples were made by mixing 98 μL of blank plasma with 2 μL of dosing solution (100 μM) to achieve the final concentration of 2 μM. Samples were incubated at 37° C. At each time point (0, 10, 30, 60, and 120 min), 400 μL of stop solution (consisting of 200 ng/mL tolbutamide and 20 ng/mL buspirone in 50% MeOH/CH3CN) was added to precipitate protein under thorough mixing. The sample plates were then centrifuged at 4,000 rpm for 10 min. An aliquot of supernatant (100 μL) was transferred from each well and mixed with 200 of μL ultrapure water. The samples were shaken at 800 rpm for about 10 min before LC-MS/MS analysis.
Data analysis: The % remaining of test compound after incubation in plasma was calculated using following equation: Remaining=100×(PAR at Tn/PAR at T0) where PAR is the peak area ratio of analyte versus internal standard (IS) and The appointed incubation time points are T0 (0 min), Tn (n=0, 10, 30, 60, 120 min).
LC-MS/MS condition: Each compound was analyzed by LC/MS using an ACE 5-phenyl 50×2.1 mm column (Part No. ACE-125-0502) with 0.1% formic acid in water and 0.1% formic acid in acetonitrile as the mobile phases. Tobultamide was used as the internal standard. Data collected were processed by Analyst 1.6.2 software and MultiQuant 3.0.2 software.

[6] = mouse, liver microsomes, pH 7.4
[7] = Caco-2, pH 7.4, Mean Recovery % A to B

Sequence of human neutrophil elastase (P08246 30-247): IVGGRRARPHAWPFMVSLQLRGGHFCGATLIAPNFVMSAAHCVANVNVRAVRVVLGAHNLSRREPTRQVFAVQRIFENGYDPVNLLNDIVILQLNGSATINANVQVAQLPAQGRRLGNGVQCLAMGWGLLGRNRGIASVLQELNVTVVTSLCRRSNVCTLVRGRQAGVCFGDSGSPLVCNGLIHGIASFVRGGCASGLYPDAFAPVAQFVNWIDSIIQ
Sequence of elastase in CF patient sputum (P08246 30-267): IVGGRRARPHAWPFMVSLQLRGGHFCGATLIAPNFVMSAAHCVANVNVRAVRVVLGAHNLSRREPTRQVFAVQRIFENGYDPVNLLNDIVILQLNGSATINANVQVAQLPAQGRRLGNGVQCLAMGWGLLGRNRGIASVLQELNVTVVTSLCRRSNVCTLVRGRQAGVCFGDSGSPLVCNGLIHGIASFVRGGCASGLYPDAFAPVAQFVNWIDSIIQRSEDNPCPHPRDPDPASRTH
Sequence of elastase in COPD patient sputum (P08246 30-267): as above

With `COC(=O)N[C@H](C(=O)N1CCC[C@H]1C(=O)N[C@H](C(=O)O)C(C)C)C(C)C` [Compound 50b, (methoxycarbonyl)-L-valyl-L-prolyl-L-valine] (Moc-Val-Pro-Val-OH) the “inhibitory activity against HNE (in words)” value [1] was “devoid of any inhibitory activities” and the IC50 [1] was “Not Active”.

`Cc1c(-c2ccnn2C)cc(C(=O)NCc2ccc(S(C)(=O)=O)cn2)c(=O)n1-c1cccc(C(F)(F)F)c1` [Compound 53] showed an IC50 [2] of 2.98 ± 0.82 nM, a LipE [2] of 7.22 and a LipE [1] of 7.32. It also gave an IC50 ([1]; read-out: IC50) of 2.62 ± 0.39 nM, an IC50 [3] of 4.08 ± 0.39 nM and a LipE [3] of 7.11.

With `CC1=C(C#N)[C@@H](c2ccc(C#N)cc2S(C)(=O)=O)N(C)C(=O)N1c1cccc(C(F)(F)F)c1` [Compound 54, BAY 85-8501] the LipE [2] was 6.85, the LipE [1] was 6.76 and the LipE [3] was 5.87. The “inhibitory activity in patient sputum versus purified HNE (in words)” value ([3]; sputum samples of CF and COPD patients) was “potencies diminished drastically”.

`COC(=O)C1=C(C)N(c2cccc(C(F)(F)F)c2)c2n[nH]c(=O)n2C1c1ccc(C#N)cc1` (stereo not drawn) [Compound 56] gave an IC50 [2] of 1.12 ± 0.04 nM, a LipE [2] of 4.67 and a LipE [1] of 4.59. The IC50 ([1]; read-out: IC50) was 1.34 ± 0.13 nM, the IC50 [3] was 2.68 ± 0.04 nM and the LipE [3] was 4.29.

Work on `COC(=O)C1=C(C)N(c2cccc(C(F)(F)F)c2)c2nn(CC(=O)N(C)CCC[N+](C)(C)C)c(=O)n2C1c1ccc(C#N)cc1` (stereo not drawn) [Compound 57] yielded an IC50 [2] of 0.97 ± 0.14 nM, a LipE [2] of 9.45 and a LipE [1] of 9.46. It also gave an IC50 ([1]; read-out: IC50) of 0.99 ± 0.13 nM, an IC50 [3] of 2.04 ± 0.08 nM and a LipE [3] of 9.16.

In the case of `O=C(O)Cc1ccccc1Nc1c(Cl)cccc1Cl` [Diclofenac], the “Remaining (*NCF = 60min)” value [4] is reported as 88.0%, the “Remaining (T = 60 min)” value [4] is reported as 43.0% and the Extraction ratio ([4]; MLM 0.5, Qh 90.0 mL/min/Kg) is reported as 0.5. It also gave a CLint scaled at 1 μM [4, 6] of 108 mL/min/kg, a microsomal CLint at 1 μM [4, 6] of 27.2 µL/min/mg and a half-life at 1 μM ([4]; mouse, microsomes, pH 7.4) of 51 min.

With `C[C@H]1O[C@@H](O[C@H]2[C@@H](O)C[C@H](O[C@H]3[C@@H](O)C[C@H](O[C@H]4CC[C@@]5(C)[C@H](CC[C@@H]6[C@@H]5C[C@@H](O)[C@]5(C)[C@@H](C7=CC(=O)OC7)CC[C@]65O)C4)O[C@@H]3C)O[C@@H]2C)C[C@H](O)[C@@H]1O` [Digoxin] the Papp A→B at 120 min, 2 μM ([5]; Caco-2, pH 7.4) was < 0.02 ×10⁻⁶ cm/s, the Papp B→A at 120 min, 2 μM ([5]; Caco-2, pH 7.4) was 8.5 ×10⁻⁶ cm/s and the efflux ratio at 2 h, 2 μM ([5]; Caco-2, pH 7.4) was > 364. For the same compound, the recovery at 2 h, 2 μM [5, 7] was < 91.2% and the recovery at 2 h, 2 μM ([5]; Caco-2, pH 7.4, Mean Recovery % B to A) was 100%.

`CC(Cc1ccc(O)cc1)NCC(O)c1cc(O)cc(O)c1` (stereo not drawn) [Fenoterol] gave a Papp A→B at 120 min, 2 μM ([5]; Caco-2, pH 7.4) of 0.24 ×10⁻⁶ cm/s and a recovery at 2 h, 2 μM ([5]; Caco-2, pH 7.4) of 93.4%.

For `CC(C)[N+](C)(CCOC(=O)C1c2ccccc2Oc2ccccc21)C(C)C` [Propantheline], the “% Remaining (mean)” value (Plasma Stability Assay; 0 min, 2 μM, 37° C.) was 100.0%, the “% Remaining (mean)” value (Plasma Stability Assay; 10 min) was 76.8% and the “% Remaining (mean)” value (Plasma Stability Assay; 30 min) was 39.1%. For the same compound, the “% Remaining (mean)” value (Plasma Stability Assay; 60 min) was 21.7% and the “% Remaining (mean)” value (Plasma Stability Assay; 120 min) was 7.7%.

`CC(C)NCC(O)COc1cccc2ccccc12` (stereo not drawn) [Propranolol] showed a Papp A→B at 120 min, 2 μM ([5]; Caco-2, pH 7.4) of 19.8 ×10⁻⁶ cm/s and a recovery at 2 h, 2 μM [5, 7] of 69.2%.

For `C[C@]12CC[C@H]3[C@@H](CCC4=CC(=O)CC[C@@]43C)[C@@H]1CC[C@@H]2O` [Testosterone], the “CLint(liver)” value ([4]; MLM 0.5) was 2365.5 mL/min/kg, the “Remaining (*NCF = 60min)” value [4] was 70.3% and the “Remaining (T = 60 min)” value [4] was 0.0%. It also gave a half-life at 1 μM ([4]; mouse, microsomes, pH 7.4) of 2.3 min and a microsomal CLint ([4]; mouse, microsomes, pH 7.4) of 597 µL/min/mg.

Compound POL6014 [Compound 55] has an IC50 [2] of 0.051 ± 0.004 nM, a LipE [2] of 18.8 and an IC50 ([1]; read-out: IC50) of 0.093 ± 0.008 nM. It also gave an IC50 [3] of 0.48 ± 0.03 nM and a LipE [3] of 17.8.
